Experiments:
[1] = target: RAC-alpha serine/threonine-protein kinase (Homo sapiens) (UniProt P31749); assay: Inhibition of protein kinase B (Akt) PH domain
[2] = target: RAC-alpha serine/threonine-protein kinase (Homo sapiens) (UniProt P31749); assay: Binding affinity for protein kinase B (Akt) PH domain
[3] = target: RAC-alpha serine/threonine-protein kinase (Homo sapiens) (UniProt P31749); assay: Inhibition of binding to Protein kinase B (Akt) PH domain; parameters: scale not given: the % may be the effect or the level left
[4] = target: RAC-alpha serine/threonine-protein kinase (Homo sapiens) (UniProt P31749); assay: Binding activity for protein kinase B (Akt) PH domain

RAC-alpha serine/threonine-protein kinase (Homo sapiens), sequence (P31749 whole entry, the tested form may be a part): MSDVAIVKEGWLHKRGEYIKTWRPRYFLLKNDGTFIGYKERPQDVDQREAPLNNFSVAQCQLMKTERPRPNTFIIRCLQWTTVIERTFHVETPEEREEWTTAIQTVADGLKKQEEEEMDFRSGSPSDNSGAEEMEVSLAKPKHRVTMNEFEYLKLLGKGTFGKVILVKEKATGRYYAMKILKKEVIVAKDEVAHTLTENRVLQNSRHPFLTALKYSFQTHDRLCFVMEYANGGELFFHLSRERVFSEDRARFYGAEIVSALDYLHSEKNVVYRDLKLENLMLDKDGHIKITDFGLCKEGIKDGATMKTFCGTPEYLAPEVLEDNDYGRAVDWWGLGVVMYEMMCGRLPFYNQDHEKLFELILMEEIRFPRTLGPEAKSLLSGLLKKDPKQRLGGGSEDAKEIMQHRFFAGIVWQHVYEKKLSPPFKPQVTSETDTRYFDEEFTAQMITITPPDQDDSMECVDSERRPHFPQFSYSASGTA

Ratio [1] | Ratio [2] | Activity [3] | Activity [4] | SMILES
32 |  |  |  | CCCCCCCCCCCCCCCCCCOC[C@H](COC(=O)O[C@@H]1[C@H](O)[C@@H](CO)[C@@H](O)[C@H](O)[C@@H]1O)OC (stereo in doubt; 2)
5 |  |  |  | CCCCCCCCCCCCCCCCCCOC[C@H](COC(=O)O[C@@H]1[C@H](O)[C@@H](CO)[C@@H](O)[C@H](O)[C@@H]1O)OC (stereo in doubt; 1)
 |  |  | 13% | CCCCCCCCCCCCCCCCCCCC(=O)OC(COC(=O)CCCCCCCCCCCCCCCCC)COP(=O)(O)OC1C(O)CCC(OP(=O)(O)O)C1O (configuration not stated)

Continued, compound first:

SMILES | Ratio [1] | Ratio [2] | Activity [3] | Activity [4]
CCCCCCCCCCCCCCCCCCCC(=O)OC(COC(=O)CCCCCCCCCCCCCCCCC)COP(=O)(O)OC1C(O)C(OP(=O)(O)O)C(OP(=O)(O)O)C(OP(=O)(O)O)C1O (configuration not stated) |  | 0.4 | -35% | 
CCCCCCCCCCCCCCCCCCCC(=O)OC(COC(=O)CCCCCCCCCCCCCCCCC)COP(=O)(O)OC1C(O)CC(OP(=O)(O)O)C(OP(=O)(O)O)C1O (configuration not stated) |  | 0.57 |  | 100%

Source: ChEMBL document CHEMBL1134371, “Molecular modeling studies of the Akt PH domain and its interaction with phosphoinositides” (J Med Chem, 2001)
